Experiments:
[1] = test system: P. aeruginosa PAO1 biofilms; assay: Glass slide biofilm assay for observation of eDNA release; format: cell-based; settings: ABTG medium containing 25 μM G1, 24 h, PI staining
Experimental: Glass Slide Biofilm Assay for Observation of eDNA Release. The glass slide biofilm assay was performed (Liu et al. 2010 Synergistic activities of an efflux pump inhibitor and iron chelators against Pseudomonas aeruginosa growth and biofilm formation. Antimicrob Agents Chemother 54:3960-3963). Briefly, gfp-tagged P. aeruginosa PAO1 biofilms were cultivated in 50 ml BD falcon tubes containing 15 ml ABTG medium. A sterile 24 mm×60 mm glass cover slide was inserted into each falcon tube for supporting biofilm growth. G1 (10 μm) was added into the biofilm medium to examine its impact on P. aeruginosa PAO1 biofilm formation. DMSO was added alone to the medium as control. Biofilms were incubated at 37° C. without shaking. 2 μM propidium iodide (Sigma-Aldrich) was added to biofilm cultures to stain extracellular DNA for 5 min after 24-hour growth. After that, biofilm attached glass slides were observed by confocal laser scanning microscopy (CLSM).

[2] = test system: pqsA-gfp(ASV) expression; assay: Inhibition of the PQS QS system, pqsA-gfp(ASV) reporter in PAO1 wild-type and lasR mutant; format: cell-based, P. aeruginosa
Experimental: (§1) Inhibition of the Rhl and PQS QS systems in wild-type PAO1 and PAO1 lasR mutant. Wild-type P. aeruginosa PAO1 strains harboring either the rhlA-gfp(ASV) reporter or the pqsA-gfp(ASV) reporter, and a P. aeruginosa PAO1 lasR mutant harboring either the rhlA-gfp(ASV) reporter or the pqsA-gfp(ASV) reporter were used for this experiment (Refer to FIG. 11 for strain information). Overnight cultures of these four strains were diluted 100-fold in ABTGC media within 96-well microtitre plates to a final volume of 200 μL per well. Each of the five QSIs was added in triplicate to a final concentration of 50 μM. 0.5% DMSO was used as a negative control. The microtitre plate was incubated at 37° C. in a Tecan Infinite 200 Pro plate reader where GFP and OD600 readings were measured at 15 min intervals.
(§2) Effect of QSIs on Rhl and Pqs Quorum-Sensing Systems. In order to address the problem of the specificity of present compounds, the five identified QSI compounds were tested to see if they had any effect on the rhl and pqs systems. The five QSIs were tested against a PAO1 wild-type and a PAO1 lasR mutant harboring either the rhlA-gfp (ASV) bioreporter or the pqsA-gfp (ASV) bioreporter. The rhlA system is dependent on the RhlR/I system. By doing so, we were able to determine if a QSI is able to inhibit the other two QS systems (i.e. rhl and pqs) in a lasR-dependent/independent manner (FIG. 8).

[3] = test system: P. aeruginosa PAO1 strain; assay: iTRAQ-based quantitative proteomic analysis; format: cell-based; settings: 25 μM G1
Experimental: iTRAQ-Based Proteomics Analyses for G1. Isobaric tag for relative and absolute quantitation (iTRAQ)-based proteomic analysis was used to study the changes in protein expression of the P. aeruginosa PAO1 strain in response to the addition of 25 μM of G1. Proteomics experiments were performed at the Proteomic Core Facility of the Biological Research Center, School of Biological Sciences, Nanyang Technological University, Singapore. A full description of the proteomics workflow is given below.
Protein preparation and digestion. The P. aeruginosa PAO1 strain was grown in ABTG media. Sub-lethal concentrations of G1 (25 μM) were added to independent P. aeruginosa PAO1 cultures respectively. Cultures were grown in LB medium at 37° C. with shaking until late log phase (OD 600 nm=1.0) before harvesting. After harvesting, cell pellets were washed with 1×PBS and resuspended in 2 ml of lysis buffer containing 0.5M TEAB and 0.1M SDS. The cells were ruptured by sonication, and the cell debris was removed by centrifugation at 4° C. at 16000×g for 15 min. 200 μg of proteins from different growth conditions were dissolved in equal volume of sample buffer (Invitrogen) supplemented with 0.5% 2-mercaptoethanol and denatured by boiling at 95° C. for 5 min. 1D gel electrophoresis was carried out using 10% SDS-PAGE for in-gel digestion.
Proteins were first reduced using 5 mM Tris-(2-carboxyethyl)phosphine (TCEP) for 1 h at 60° C., followed by blocking of cysteine residues by 10 mM methyl methanethiosulfate (MMTS) for 30 min at room temperature in the dark. Trypsin was added at a ratio of 1:50 (trypsin/sample). It was then incubated at 37° C. overnight. The tryptic peptides were extracted by 50% ACN/5% Acetic Acid from gel for 3 times and were desalted using Sep-Pak C18 cartridges (Waters, Milford, Mass.) and dried in a SpeedVac (Thermo Electron, Waltham, Mass.). All chemicals were purchased from Sigma-Aldrich unless stated otherwise.
iTRAQ labeling. The iTRAQ labeling of the tryptic peptides was performed using 4-plex iTRAQ reagent kit (Applied Biosystems, Foster City, Calif.), according to the manufacturers protocol. 200 μg of peptides from each condition were individually labeled with respective isobaric tags: control sample with 114, and the G1 treated sample with 115. After 2 h incubation, the samples were quenched by water, desalted using C18 solid phase extraction cartridge, and then vacuum-centrifuged to dryness. […] The HPLC chromatograms were recorded at 280 nm and fractions were collected online using automated fraction collector. 20 fractions were collected and concentrated using vacuum centrifuge and reconstituted in 3% ACN with 0.1% formic acid for LC-MS/MS analysis.
LC-MS/MS. The peptides were separated and analyzed on a home-packed nanobore C18 column (15 cm×75 μm; Reprosil-Pur C18-AQ, 3 μm, Dr Maisch, Germany) with a Picofritnanospray tip (New Objectives, Woburn, Mass., USA) on a Tempo™ nano-MDLC system coupled with a QSTAR® Elite Hybrid LC-MS/MS system (Applied Biosystems). Peptides from each fraction were analyzed in triplicate by LC-MS/MS over a gradient of 90 min. The flow rate of the LC system was set to a constant 300 nl/min. Data acquisition in QSTAR Elite was set to positive ion mode using Analyst® QS 2.0 software (Applied Biosystems). MS data was acquired in positive ion mode with a mass range of 300-1600 m/z. Peptides with +2 to +4 charge states were selected for MS/MS. For each MS spectrum, the three most abundant peptides above a five-count threshold were selected for MS/MS and dynamically excluded for 30 s with a mass tolerance of 0.03 Da. Smart information-dependent acquisition was activated with automatic collision energy and automatic MS/MS accumulation. The fragment intensity multiplier was set to 20 and maximum accumulation time was 2 s.
Data analysis. […]

[4] = test system: rhlA-gfp(ASV) expression; assay: Inhibition of the Rhl QS system, rhlA-gfp(ASV) reporter in PAO1 wild-type and lasR mutant; format: cell-based, P. aeruginosa
Experimental: as §1, §2

## N=c1[nH]c(=O)c2nn[nH]c2[nH]1 [Compound G1, 5-imino-4,6-dihydro-3H-1,2,3-triazolo[5,4-d]pyrimidin-7-one]
[1]
  extracellular DNA (eDNA) in biofilms: less eDNA was observed
[2]; PAO1 lasR mutant, 50 μM QSI
  inhibition of pqsA-gfp expression: 24.4%
[2]; wild-type PAO1, 50 μM QSI
  inhibition of pqsA-gfp expression: 57.5%
[3]
  abundance of protease IV (PA4175), 115:114: 0.29
  change in abundance of pyoverdine chromophore synthetase (pvdL; PA2424): −0.73 fold
  change in abundance of pyoverdine synthetase D (pvdD; PA2399): −0.89 fold
  elastase (lasB; PA3724) in the proteomics result: not identified as down-regulated
[3]; 115:114 score at least 1.5
  number of proteins with abundance upregulated: 19
[3]; 115:114 score below 0.66
  number of proteins with abundance down-regulated: 27
[3]; p-value (115:114) cut-off 0.05
  number of proteins significantly affected: 46
[4]; PAO1 lasR mutant, 50 μM QSI
  inhibition of rhlA-gfp expression: 46.5%
[4]; data not shown
  induction of the rhl QS system: delay the induction of the rhl QS system
[4]; wild-type PAO1, 50 μM QSI
  inhibition of rhlA-gfp expression: 23.1%

— US9988380B2, “Quorum sensing inhibitors” (priority 2013, dated 2018)
